In patent publication US8030298B2, “17β-HSD1 and STS inhibitors” (Abbott Products GmbH, priority 2005, dated 2011):

Biological target: T1, recombinant human 17β-hydroxysteroid dehydrogenase type 1 (Homo sapiens, UniProt P14061)
T1 construct: made in house; host or cells: Sf9 insect cells (baculovirus, Bac to Bac Expression System)
T1 sequence (P14061 1-328): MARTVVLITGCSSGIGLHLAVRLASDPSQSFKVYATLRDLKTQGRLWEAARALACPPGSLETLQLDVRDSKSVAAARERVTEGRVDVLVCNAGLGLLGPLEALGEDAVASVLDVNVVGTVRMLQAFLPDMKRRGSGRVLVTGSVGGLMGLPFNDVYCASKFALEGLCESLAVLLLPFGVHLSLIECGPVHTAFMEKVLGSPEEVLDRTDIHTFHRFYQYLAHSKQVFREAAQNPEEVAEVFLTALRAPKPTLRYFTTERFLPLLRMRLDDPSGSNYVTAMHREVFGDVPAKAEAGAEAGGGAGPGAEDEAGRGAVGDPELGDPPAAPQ
Experiment: Inhibition of recombinant human 17β-hydroxysteroid dehydrogenase type 1 (3H-estrone to estradiol conversion, HPLC)
Type: biochemical
Conditions: read-out: Inhibition of rec. 17β-HSD1 (% inhibition); for inhibition at 0.1 µM: inhibitor concentration 100 nM; for inhibition at 1 µM: 0.5 h, inhibitor concentration 1 μm
Experimental: 17β-HSD1 purification: Recombinant baculovirus was generated by the “Bac to Bac Expression System” (Invitrogen). Recombinant bacmid was transfected to Sf9 insect cells using “Cellfectin Reagent” (Invitrogen). 60 h later cells were harvested; the microsomal fraction was isolated as described by Puranen et al. (1994). Aliquots were stored frozen until determination of enzymatic activity.
Assay—Inhibition of recombinant human 17β-hydroxysteroid dehydrogenase type 1: Recombinant protein (0.1 μg/ml) was incubated in 20 mM KH2PO4 pH 7.4 with 30 nM 3H-estrone and 1 mM NADPH for 30 min at RT, in the presence of potential inhibitors at concentrations of 1 μM or 0.1 μM. Inhibitor stock solutions were prepared in DMSO. Final concentration of DMSO was adjusted to 1% in all samples. The enzyme reaction was stopped by addition of 10% trichloroacetic acid (final concentration). Samples were centrifuged in a microtiter plate at 4000 rpm for 10 min. Supernatants were applied to reverse phase HPLC on a Waters Symmetry C18 column, equipped with a Waters Sentry Guard column. Isocratic HPLC runs were performed at RT at a flow rate of 1 ml/min of acetonitrile:water 48:52 as running solvent. Radioactivity was monitored in the eluate by a Packard Flow Scintillation Analyzer. Total radioactivity for estrone and estradiol were determined in each sample and percent conversion of estrone to estradiol was calculated according to the following formula:
Percent inhibition was calculated as follows: % inhibition=100−% conversion

`COCCc1cc2c(cc1O)CC[C@H]1[C@@H]3[C@H](CCCC(=O)NCc4ccccc4)CC(=O)[C@@]3(C)CC[C@H]21` [Example 3, N-Benzyl-4-(3-hydroxy-2-(2-methoxy-ethyl)-17-oxo-estra-1,3,5(10)-trien-15β-yl)-butyramide] was tested, and the inhibition at 0.1 µM was 19.6%.

`CCCc1cc2c(cc1O)CC[C@H]1[C@@H]3[C@H](CCCC(=O)N4CCOCC4)CC(=O)[C@@]3(C)CC[C@H]21` [Example 6, 3-Hydroxy-15β-(4-morpholin-4-yl-4-oxo-butyl)-2-propyl-estra-1,3,5(10)-trien-17-one] showed an inhibition at 0.1 µM of 37.9%.

`C[C@]12CC[C@@H]3c4ccc(O)cc4CC[C@H]3[C@@H]1[C@H](CCCC(=O)N1CCOCC1)CC2(F)F` [Example 90] was tested, and the inhibition at 0.1 µM was 63.5%.

In the case of `C[C@]12CC[C@@H]3c4ccc(O)cc4CC[C@H]3[C@@H]1[C@@H](CCCC(=O)N1CCOCC1)CC2(F)F` [Example 91, 4-(17,17-Difluoro-3-hydroxy-estra-1,3,5(10)-trien-15α-yl)-1-morpholin-4-yl-butan-1-one], the inhibition at 0.1 µM is reported as 32%.

Compound `Cc1cnc(NC(=O)CC[C@@H]2CC(F)(F)[C@@]3(C)CC[C@@H]4c5ccc(O)cc5CC[C@H]4[C@H]23)s1` [Example 93, 3-(17,17-Difluoro-3-hydroxy-estra-1,3,5(10)-trien-15β-yl)-N-(5-methyl-thiazol-2-yl)-propionamide] has an inhibition at 0.1 µM of 59.5%.

In the case of `C[C@]12CC[C@@H]3c4ccc(O)cc4CC[C@H]3[C@@H]1[C@H](CCCC(=O)N1CCOCC1)c1cn[nH]c12` [Example 162, 3-Hydroxy-15β-(4-morpholin-4-yl-4-oxo-butyl)-estra-1,3,5(10)-trien-[16,17-c]-pyrazole], the inhibition at 1 µM is reported as 93% and the inhibition at 0.1 µM is reported as 63%.

In the case of `C[C@]12CC[C@@H]3c4ccc(OS(N)(=O)=O)cc4CC[C@H]3[C@@H]1[C@H](CCCC(=O)N1CCOCC1)CC2=O` [Example 163, 3-Sulphamate-15β-(4-morpholin-4-yl-4-oxo-butyl)-estra-1,3,5(10)-trien-17-one], the inhibition at 1 µM is reported as 43% and the inhibition at 0.1 µM is reported as 10%.

With `C[C@]12CC[C@@H]3c4ccc(OS(=O)(=O)O)cc4CC[C@H]3[C@@H]1[C@H](CCCC(=O)N1CCOCC1)CC2=O` [Example 164, 3-Sulphate-15β-(4-morpholin-4-yl-4-oxo-butyl)-estra-1,3,5(10)-trien-17-one] the inhibition at 1 µM was 27% and the inhibition at 0.1 µM was 3%.
